The IC50 is the midpoint of a concentration-inhibition curve.

The structures appear in SMILES notation.

The values below come from patent US20260216198A1, “GPR35 MODULATORS” (ThirtyFiveBio Limited, priority 2023, published 2026).

The target of the assay is T1, GPR35 (Homo sapiens, UniProt Q9HC97).
T1 construct: expressed in transfected cells; host or cells: CHO-K1 cells co-expressing mitochondrial aequorin and Gα16
The assay is described as follows: cellular GPR35 phospho-ERK HTRF assay (inhibition of lodoxamide-induced phospho-ERK signal). Conditions: GPR35-CHO-K1-mt aequorin-Gα16 cell line; agonist lodoxamide at EC80; read-out: Activity Group (IC50, inhibition of GPR35 agonist-induced phospho-ERK signal). The format is cell-based. In outline:
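GPR35-CHO-K1-mt aequorin-Gα16 cells were stimulated with lodoxamide at its EC80. After lysis, phospho-ERK1/2 (Thr202/Tyr204) was read by HTRF sandwich with Eu-cryptate/d2 antibodies at 665 nm. IC50 is the modulator concentration giving 50% inhibition of the window between agonist-plus-vehicle and no-agonist controls.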
On the technique in general: In TR-FRET formats the signal depends on donor and acceptor labels being close together.

T1 sequence (Q9HC97 whole entry): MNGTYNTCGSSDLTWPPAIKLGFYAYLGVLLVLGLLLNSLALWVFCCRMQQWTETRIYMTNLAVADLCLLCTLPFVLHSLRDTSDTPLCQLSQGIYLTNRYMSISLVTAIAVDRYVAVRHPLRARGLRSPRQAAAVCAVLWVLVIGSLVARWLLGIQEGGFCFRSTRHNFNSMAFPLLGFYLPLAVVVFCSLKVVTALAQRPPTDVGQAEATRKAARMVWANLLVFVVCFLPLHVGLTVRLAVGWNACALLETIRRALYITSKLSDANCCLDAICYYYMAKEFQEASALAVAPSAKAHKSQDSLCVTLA

As to `CSc1ncc(C(=O)Nc2ccc(OCCc3ccccc3)cc2)cc1-c1cnc(C)c(C(=O)O)c1` [Example 94, 2-Methyl-5-[2-methylsulfanyl-5-[[4-(2-phenylethoxy)phenyl]carbamoyl]-3-pyridyl]pyridine-3-carboxylic acid], the IC50 is 1000 to 10000 nM.
Turning to `COCCOc1ncc(C(=O)Nc2ccc(OCCc3ccccc3)cc2)cc1-c1cnc(C)c(C(=O)O)c1` [Example 95, 5-[2-(2-Methoxyethoxy)-5-[[4-(2-phenylethoxy)phenyl]carbamoyl]-3-pyridyl]-2-methyl-pyridine-3-carboxylic acid], the IC50 fell in the range of 1000 to 10000 nM.
With `Cc1ncc(-c2cccc(C(=O)Nc3ccc(CS(=O)(=O)c4ccc(Cl)cc4)cc3)c2)cc1C(=O)O` [Example 96, 5-[3-[[4-[(4-Chlorophenyl)sulfonylmethyl]phenyl]carbamoyl]phenyl]-2-methyl-pyridine-3-carboxylic acid] the figure was under 1000 nM.
Regarding `Cc1ncc(-c2cccc(C(=O)Nc3ccc(CS(=O)(=O)c4cccc(Cl)c4)cc3)c2)cc1C(=O)O` [Example 97, 5-[3-[[4-[(3-Chlorophenyl)sulfonylmethyl]phenyl]carbamoyl]phenyl]-2-methyl-pyridine-3-carboxylic acid], the IC50 was in the range of 1000 to 10000 nM.
To `Cc1ncc(-c2cccc(C(=O)Nc3ccc(CS(=O)(=O)c4ccccc4Cl)cc3)c2)cc1C(=O)O` [Example 98, 5-[3-[[4-[(2-Chlorophenyl)sulfonylmethyl]phenyl]carbamoyl]phenyl]-2-methyl-pyridine-3-carboxylic acid] belongs 1000 to 10000 nM; to `COc1ccc(S(=O)(=O)Cc2ccc(NC(=O)c3cccc(-c4cnc(C)c(C(=O)O)c4)c3)cc2)cc1` [Example 99, 5-[3-[[4-[(4-Methoxyphenyl)sulfonylmethyl]phenyl]carbamoyl]phenyl]-2-methyl-pyridine-3-carboxylic acid], 1000 to 10000 nM; to `COc1cccc(S(=O)(=O)Cc2ccc(NC(=O)c3cccc(-c4cnc(C)c(C(=O)O)c4)c3)cc2)c1` [Example 100, 5-[3-[[4-[(3-Methoxyphenyl)sulfonylmethyl]phenyl]carbamoyl]phenyl]-2-methyl-pyridine-3-carboxylic acid], 1000 to 10000 nM.
With `Cc1ccc(S(=O)(=O)Cc2ccc(NC(=O)c3cccc(-c4cnc(C)c(C(=O)O)c4)c3)cc2)cn1` [Example 101, 2-Methyl-5-[3-[[4-[(6-methyl-3-pyridyl)sulfonylmethyl]phenyl]carbamoyl]phenyl]pyridine-3-carboxylic acid] the figure was 1000 to 10000 nM.
